# Molecular target: T1, FLT3 (N841I) (Homo sapiens, UniProt P36888, N841I)
# T1 construct: host or cells: T7 phage in E. coli (BL21-derived) or HEK-293
# T1 sequence (P36888 27-993 N841I): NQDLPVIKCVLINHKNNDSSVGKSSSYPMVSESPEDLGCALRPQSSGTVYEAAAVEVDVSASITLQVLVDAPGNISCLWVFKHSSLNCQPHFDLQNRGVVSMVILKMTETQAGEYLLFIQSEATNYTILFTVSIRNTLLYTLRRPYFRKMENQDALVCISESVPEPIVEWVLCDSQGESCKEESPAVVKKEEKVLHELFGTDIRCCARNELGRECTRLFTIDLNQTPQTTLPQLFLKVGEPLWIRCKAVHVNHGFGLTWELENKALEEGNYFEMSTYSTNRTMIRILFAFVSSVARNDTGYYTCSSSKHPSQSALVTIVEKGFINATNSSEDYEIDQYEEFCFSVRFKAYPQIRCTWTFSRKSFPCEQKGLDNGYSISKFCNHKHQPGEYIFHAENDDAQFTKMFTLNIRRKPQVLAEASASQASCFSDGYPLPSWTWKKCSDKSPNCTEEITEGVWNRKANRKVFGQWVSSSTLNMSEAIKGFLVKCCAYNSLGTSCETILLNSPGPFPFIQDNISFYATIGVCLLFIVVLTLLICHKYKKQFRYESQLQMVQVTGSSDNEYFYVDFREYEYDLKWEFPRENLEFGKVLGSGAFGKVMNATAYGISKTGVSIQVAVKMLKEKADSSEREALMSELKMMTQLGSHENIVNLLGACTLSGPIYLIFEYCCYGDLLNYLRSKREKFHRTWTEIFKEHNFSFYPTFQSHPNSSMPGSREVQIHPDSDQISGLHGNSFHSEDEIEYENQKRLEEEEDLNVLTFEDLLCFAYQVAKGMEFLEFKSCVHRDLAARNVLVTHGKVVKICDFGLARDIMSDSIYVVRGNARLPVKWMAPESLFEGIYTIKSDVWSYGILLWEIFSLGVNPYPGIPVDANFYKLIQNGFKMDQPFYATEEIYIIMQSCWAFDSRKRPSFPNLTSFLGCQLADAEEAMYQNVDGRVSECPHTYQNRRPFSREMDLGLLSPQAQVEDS
# Assay: KINOMEscan kinase binding assay, FLT3 (N841I)
# Protocol: The kinase assay was conducted using KINOMEscan™.
# Kinase-tagged T7 phage strains were grown in parallel in 24-well blocks in an E. coli host derived from the BL21 strain. E. coli were grown to log-phase and infected with T7 phage from a frozen stock (multiplicity of infection=0.4) and incubated with shaking at 32° C. until lysis (90-150 minutes). The lysates were centrifuged (6,000×g) and filtered (0.2 μm) to remove cell debris. The remaining kinases were produced in HEK-293 cells and subsequently tagged with DNA for qPCR detection. Streptavidin-coated magnetic beads were treated with biotinylated small molecule ligands for 30 minutes at room temperature to generate affinity resins for kinase assays. The liganded beads were blocked with excess biotin and washed with blocking buffer (SeaBlock (Pierce), 1% BSA, 0.05% Tween 20, 1 mM DTT) to remove unbound ligand and to reduce non-specific phage binding. Binding reactions were assembled by combining kinases, liganded affinity beads, and test compound (Compound 23) in 1× binding buffer (20% SeaBlock, 0.17×PBS, 0.05% Tween 20, 6 mM DTT). Test compound were prepared as 40× stocks in 100% DMSO and directly diluted into the assay. All reactions were performed in polypropylene 384-well plates in a final volume of 0.04 ml. […] The kinase concentration in the eluates was measured by qPCR. […]
smiles,measurement,setting,value
"Cc1ccc(C(=O)Nc2ccc(CN3CCN(C)CC3)c(C(F)(F)F)c2)cc1C#Cc1cnc2[nH]ncc2c1 [Compound 23, 3-(2-(1H-pyrazolo[3,4-b]pyridin-5-yl)ethynyl)-4-methyl-N-(4-((4-methylpiperazin-1-yl)methyl)-3-(trifluoromethyl)phenyl)benzamide]",% Ctrl@10 nM,10 nM,2.9 % Ctrl
same,% Ctrl@100 nM,100 nM,0.05 % Ctrl
